From ChEMBL document CHEMBL1130996, “A depsipeptide fungal metabolite inhibitor of cholesteryl ester transfer protein” (Bioorg Med Chem Lett, 1998) come the findings set out here.

What is called IC50 is the point on the concentration scale where inhibition reaches its midpoint. The low end stands for greater potency in that assay, the high end for weaker potency in that assay.

In experiment [1] the target is T1, Cholesteryl ester transfer protein (Homo sapiens, UniProt P11597).
T1 sequence (P11597 whole entry): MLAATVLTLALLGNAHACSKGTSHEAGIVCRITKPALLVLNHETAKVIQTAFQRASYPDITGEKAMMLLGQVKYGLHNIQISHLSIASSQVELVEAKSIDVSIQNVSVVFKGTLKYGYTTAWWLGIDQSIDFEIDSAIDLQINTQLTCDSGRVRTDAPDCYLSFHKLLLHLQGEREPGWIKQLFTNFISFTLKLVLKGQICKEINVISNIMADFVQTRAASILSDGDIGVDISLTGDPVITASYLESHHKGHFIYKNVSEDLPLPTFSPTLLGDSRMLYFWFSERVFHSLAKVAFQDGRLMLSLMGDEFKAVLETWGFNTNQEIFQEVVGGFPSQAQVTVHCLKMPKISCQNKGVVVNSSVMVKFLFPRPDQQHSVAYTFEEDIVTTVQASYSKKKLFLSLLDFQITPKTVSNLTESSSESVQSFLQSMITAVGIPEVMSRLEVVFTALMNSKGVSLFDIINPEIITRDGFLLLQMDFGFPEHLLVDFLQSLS
The experiment in a line: Compound was evaluated for inhibitory activity against cholesteryl ester transfer protein; Inactive.

Experiment [2] addresses T1, Cholesteryl ester transfer protein. The experiment in a line: Compound was evaluated for inhibitory activity against cholesteryl ester transfer protein, reported from fungus. Also on record: species or system Fungi.
The target is the same in experiment [3]. The experiment in a line: Compound was evaluated for inhibitory activity against cholesteryl ester transfer protein, reported from sponge.
For experiment [4] the target is unchanged. Kind of experiment: Compound was evaluated for inhibitory activity against cholesteryl ester transfer protein.
The target is the same in experiment [5]. Kind of experiment: Compound was evaluated for inhibitory activity against cholesteryl ester transfer protein-SPA assay; Inactive.

For the compound `CCCCC(C)/C=C/C(=O)N[C@@H](Cc1ccccc1)C(=O)N[C@@H](C)C(=O)N[C@@H](CC(C)C)C(=O)O` (stereo not given in full), the IC50 result in experiment [1] is “Not Active”.

In the case of `CCCCC(C)C1CC(=O)N[C@@H](Cc2ccccc2)C(=O)N[C@@H](C)C(=O)N[C@@H](CC(C)C)C(=O)O1` (stereo not given in full), the results for the IC50 in experiment [2], in experiment [3] and in experiment [4] were 40 µM, 300 nM and 50 µM, respectively.

As to `CCCCC(C)C(O)CC(=O)N[C@@H](Cc1ccccc1)C(=O)N[C@@H](C)C(=O)N[C@@H](CC(C)C)C(=O)O` (stereo not given in full), the IC50 entry in experiment [5] is on record as “Not Active”.
